# System: NOD mice
# Experiment: antibody response of NOD mice to NP4Ova+Alum immunization on idelalisib chow
# Format: in vivo, mouse
# Description: Diet dose (DD) is calculated by multiplying the single daily dose (SD) by the body weight of a mouse (BW) and dividing that by the daily food intake (FI) [DD=(SD×BW)/FI].
# For VH125.NOD experiments animals are placed on control chow immediately after weaning.
# HEL conjugated to SRBCs was used to produce antigen for experiments with MD4 B cells. SRBCs (Colorado Serum Company) were stored in Alsever's solution at 4° C. SRBCs are washed 3 times in PBS prior to use. 1 ml of 50 mg/ml of the chemical crosslinker N-(3-Dimethylaminopropyl)-N-ethylcarbodiimide hydrochloride (Sigma-Aldrich) was added to 1 ml packed SRBCs and 15 ml of 5 mg/ml HEL (Sigma-Aldrich), mixed and rotated at room temperature for 45 minutes. Mice were immunized IP with 200 μl of a 5% HEL-SRBC in PBS. For NP4Ova-Alum immunizations, 10 mg/ml alum and 5 mg/ml NP4Ova were mixed to a final concentration of 250 μg/ml NP4Ova and 2.5 mg/ml alum and rotated for 3 hours at room temperature. […] Mice were then immunized with NP4Ova-alum IP in 200 μl/mouse, and responses were measured on day 7 and day 14 post-immunization.
# For detection of IgM^a anti-Ars antibodies, microtiter plates were coated with 10 μg/ml Ars-BSA16 in PBS and blocked with 2 mg/ml BSA in PBS 0.05% Tween-20. For detection of IgM^a anti-HEL antibodies, microtiter plates were coated with 10 μg/ml HEL in PBS and blocked with 2 mg/ml BSA in PBS 0.05% Tween-20. For detection of total NP-specific IgM and IgG, microtiter plates were coated with 20 μg/ml NP27BSA and blocked with 2 mg/ml BSA in PBS 0.05% Tween-20. For detection of high affinity NP-specific IgM and IgG, microtiter plates were coated with 20 μg/ml NP2BSA and blocked with 2 mg/ml BSA in PBS 0.05% Tween-20. Serial dilutions of mouse serum in PBS were added and incubated overnight at 4° C. Ars/A1-derived IgM^a antibodies and MD4-derived HEL IgM^a antibodies were detected with biotinylated DS.1 anti-IgM^a (BD Pharmingen) in PBS, followed by Streptavidin-HRP (Thermo Fisher Scientific). For NP-specific IgM antibodies were detected using goat-anti-mouse IgM-HRP (SouthernBiotech). For NP-specific IgG antibodies were detected using goat-anti-mouse IgG-HRP (SouthernBiotech). Between all steps, plates were washed 3 times with PBS 0.05% Tween-20. The ELISA was developed with TMB single solution (Invitrogen) and the reaction was stopped with 1M HCl. OD was measured at 450 nm using a VERSAMax plate reader (Molecular Devices) and data analyzed with SoftMax Pro6 software.
# For detection of IgM^a anti-Ars antibodies, microtiter plates were coated with 10 μg/ml Ars-BSA16 in PBS and blocked with 2 mg/ml BSA in PBS 0.05% Tween-20. For detection of IgM^a anti-HEL antibodies, microtiter plates were coated with 10 μg/ml HEL in PBS and blocked with 2 mg/ml BSA in PBS 0.05% Tween-20. For detection of total NP-specific IgM and IgG, microtiter plates were coated with 20 μg/ml NP27BSA and blocked with 2 mg/ml BSA in PBS 0.05% Tween-20. For detection of high affinity NP-specific IgM and IgG, microtiter plates were coated with 20 μg/ml NP2BSA and blocked with 2 mg/ml BSA in PBS 0.05% Tween-20. Plates were washed 3 times prior to use with PBS 0.05% Tween-20. RBC-depleted single-cell suspension of splenocytes in complete medium were added in two-fold serial dilutions starting at 1/100th of a spleen in the first well. Plates were incubated overnight at 37° C. Ars/A1-derived IgM^a antibodies and MD4-derived HEL IgM^a antibodies were detected with biotinylated DS.1 anti-IgM^a (BD Pharmingen) in PBS, followed by Streptavidin-AP (SouthernBiotech). For NP-specific IgM antibodies were detected using goat-anti-mouse IgM-AP (SouthernBiotech). For NP-specific IgG antibodies were detected using goat-anti-mouse IgG-AP (SouthernBiotech). Between all steps, plates were washed 3 times with PBS 0.05% Tween-20. The plates were developed by incubated with ELISPOT developing buffer ([…] 5-bromochloro-3-indolyl phosphate p-toluidine, […], 100 mM Tris, and 10 mM MgCl2, pH 9.5) for 1 hour. […]
# [1] = 0.9375 mg/kg chow, 14 days post-immunization, vs vehicle control
# [2] = 0.9375 mg/kg chow, day 14 post-immunization, vs vehicle control
smiles,measurement,setting,value
"CC[C@H](Nc1ncnc2nc[nH]c12)c1nc2cccc(F)c2c(=O)n1-c1ccccc1 [idelalisib, 5-fluoro-3-phenyl-2-[(1S)-1-(7H-purin-6-ylamino)propyl]-4(3H)-quinazolinone]",anti-NP IgM response in the spleen,"0.9375 mg/kg chow for 4 weeks, 14 days post-immunization, vs vehicle control",not different
same,B cell numbers in the spleens,0.9375 mg/kg chow vs vehicle control,no difference
same,high affinity IgG anti-NP ASCs/spleen,[1],no observed difference
same,number of high-affinity IgM anti-NP ASCs/spleen,[1],equivalent
same,number of total anti-NP IgM antibody secreting cells (ASCs) per spleen,[1],equivalent
same,total IgG anti-NP ASCs/spleen,[1],no observed difference
same,levels of IgG anti-NP found in the periphery,[2],equivalent
same,levels of IgM anti-NP found in the periphery,[2],equivalent

# Reference: patent US11701361B2, “p110-delta inhibitors treat and prevent autoimmunity while sparing the ability to mount an immune response to exogenous immunogens” (THE REGENTS OF THE UNIVERSITY OF COLORADO, priority 2018, dated 2023)
